According to PMC2263054, “Functional evolution of the vitamin D and pregnane X receptors” (BMC Evolutionary Biology, 2007):
Structures can show the parent of a compound that is named as a salt. Where two headings read alike, the source gives them in different places.

Experiments:
Type in all cases: cell-based
Zebrafish VDR = molecular target: T1, Zebrafish VDR (Danio rerio, UniProt Q9PTN2); assay: luciferase reporter transactivation assay in HepG2-NTCP cells, GAL4/zfVDR LBD chimera with tk-UAS-Luc; settings: screening for activators, at least three concentrations of each drug
T1 sequence (Q9PTN2 121-453): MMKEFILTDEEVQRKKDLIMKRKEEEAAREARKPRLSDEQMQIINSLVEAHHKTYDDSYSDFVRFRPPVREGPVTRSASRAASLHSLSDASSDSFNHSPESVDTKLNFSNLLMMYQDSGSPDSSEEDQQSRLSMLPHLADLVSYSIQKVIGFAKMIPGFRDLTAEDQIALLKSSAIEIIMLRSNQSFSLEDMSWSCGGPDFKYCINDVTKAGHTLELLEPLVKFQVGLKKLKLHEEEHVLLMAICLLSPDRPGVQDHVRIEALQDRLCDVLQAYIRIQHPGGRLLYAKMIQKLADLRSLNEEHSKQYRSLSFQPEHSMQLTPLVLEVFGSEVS

Xenopus laevis VDR = molecular target: T2, Xenopus laevis VDR (Xenopus laevis, UniProt O13124); assay: luciferase reporter transactivation assay in HepG2-NTCP cells, GAL4/xlVDR LBD chimera with tk-UAS-Luc; settings: screening for activators, at least three concentrations of each drug
T2 sequence (O13124 90-422): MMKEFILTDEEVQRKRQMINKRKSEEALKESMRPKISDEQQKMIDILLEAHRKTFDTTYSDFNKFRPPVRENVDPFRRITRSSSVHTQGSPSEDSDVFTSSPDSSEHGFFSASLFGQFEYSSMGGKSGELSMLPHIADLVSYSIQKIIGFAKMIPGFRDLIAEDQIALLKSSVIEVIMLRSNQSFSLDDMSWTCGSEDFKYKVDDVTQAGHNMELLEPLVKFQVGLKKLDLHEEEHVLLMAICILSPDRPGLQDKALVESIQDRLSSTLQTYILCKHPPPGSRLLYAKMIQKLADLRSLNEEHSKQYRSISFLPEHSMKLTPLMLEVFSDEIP

Sea lamprey VDR = molecular target: T3, Sea lamprey VDR (Petromyzon marinus, UniProt Q7ZZY9)
T3 sequence (Q7ZZY9 92-406): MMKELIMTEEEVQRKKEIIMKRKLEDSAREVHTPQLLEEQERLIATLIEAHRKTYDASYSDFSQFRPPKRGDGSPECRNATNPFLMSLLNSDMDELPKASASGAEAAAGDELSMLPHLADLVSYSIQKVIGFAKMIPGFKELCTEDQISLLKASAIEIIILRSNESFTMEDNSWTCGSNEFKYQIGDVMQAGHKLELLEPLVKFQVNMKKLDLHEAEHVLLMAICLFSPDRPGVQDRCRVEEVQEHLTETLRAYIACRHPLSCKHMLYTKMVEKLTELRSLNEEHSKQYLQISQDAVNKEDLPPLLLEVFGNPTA

[1] = screening for activators, at least three concentrations of each drug

Molecule	Effect on zebrafish VDR (Zebrafish VDR)	Effect on Xenopus laevis VDR (Xenopus laevis VDR)	Effect on sea lamprey VDR (Sea lamprey VDR; [1])	Effect on sea lamprey VDR (Sea lamprey VDR)	Effect on zebrafish VDR (Zebrafish VDR; listed as testosterone)	Effect on Xenopus laevis VDR (Xenopus laevis VDR; listed as testosterone)
C[C@]12CC[C@@H](O)C[C@@H]1CC[C@@H]1[C@@H]2CC[C@]2(C)[C@@H](O)CC[C@@H]12 [5a-Androstan-3a,17b-diol]	No effect	No effect	No effect			
CC(=O)N[C@@H](CSC/C=C(\C)CC/C=C(\C)CC/C=C(\C)CCC=C(C)C)C(=O)O [Acetyl-geranylgeranyl-cysteine]	No effect	No effect	No effect			
CC1=C(/C=C/C(C)=C/C=C/C(C)=C/CO)C(C)(C)CCC1 [Retinol]	No effect	No effect	No effect			
C[C@]12CCC(=O)C=C1CC[C@@H]1[C@@H]2CC[C@]2(C)C(=O)CC[C@@H]12 [Androstenedione]	No effect		No effect			
CC(C)CCC[C@@H](C)[C@H]1CC[C@H]2[C@@H]3CC[C@@H]4C[C@H](OS(=O)(=O)O)CC[C@]4(C)[C@H]3CC[C@]12C [5b-cholestan-3a-ol sulfate]	No effect	No effect	No effect			
AM-580	No effect	No effect	No effect			
C[C@]12CC[C@@H](O)C[C@@H]1CC[C@@H]1[C@@H]2CC[C@]2(C)C(=O)CC[C@@H]12 [Androsterone]	No effect	No effect	No effect			
C[C@H](CCC(=O)O)[C@H]1CC[C@H]2[C@@H]3C[C@H](O)[C@@H]4C[C@H](O)CC[C@]4(C)[C@H]3CC[C@]12C [5b-Cholanic acid-3a,6a-diol]	No effect	No effect		No effect		
C[C@H](CCC(=O)O)[C@H]1CC[C@H]2[C@@H]3[C@@H](O)[C@H](O)[C@@H]4C[C@H](O)CC[C@]4(C)[C@H]3CC[C@]12C [w-Muricholic acid]	No effect	No effect	No effect			
CCCCCCCC/C=C\CCCCCCCC(=O)NCCO [N-Oleoylethanolamide]	No effect	No effect	No effect			
CC(=O)[C@H]1CC[C@H]2[C@@H]3CC[C@@H]4C[C@H](O)CC[C@]4(C)[C@H]3CC[C@]12C [5b-Pregnan-3a-ol-20-one]	No effect	No effect	No effect			
C[C@]12CCC(=O)C=C1CC[C@@H]1[C@@H]2CC[C@@]2(C)[C@H]1CC[C@]2(O)C(=O)CO [4-Pregnen-17,21-diol-3,20-dione]	No effect	No effect	No effect			
C[C@H](CCC(=O)NCCS(=O)(=O)[O-])[C@H]1CC[C@H]2[C@@H]3CC[C@@H]4C[C@H](O)CC[C@]4(C)[C@H]3C[C@H](O)[C@]12C.[Na+] [Taurodeoxycholic acid sodium salt]	No effect	No effect	No effect			
C[C@@H](O)[C@H]1CC[C@H]2[C@@H]3CC[C@@H]4C[C@H](O)CC[C@]4(C)[C@H]3CC[C@]12C [5b-Pregnan-3a,20b,diol]	No effect	No effect	No effect			
C[C@H](CCC(=O)O)[C@H]1CC[C@H]2[C@@H]3CC[C@@H]4C[C@H](O)CC[C@]4(C)[C@H]3CC(=O)[C@]12C [12-Ketolithocholic acid]	No effect	No effect	No effect			
C[C@H](CCC(=O)NCCS(=O)(=O)O)[C@H]1CC[C@H]2[C@@H]3CC[C@@H]4C[C@H](OS(=O)(=O)O)CC[C@]4(C)[C@H]3CC[C@]12C [Taurolithocholic acid 3-sulfate]	No effect	No effect	No effect			
C[C@]12CCC(=O)C=C1CC[C@@H]1[C@@H]2[C@@H](O)C[C@]2(C=O)[C@@H](C(=O)CO)CC[C@@H]12 [Aldosterone]	No effect	No effect	No effect			
CC(CO)CCC[C@@H](C)[C@H]1[C@H](O)C[C@H]2[C@@H]3[C@H](O)C[C@H]4C[C@H](O)CC[C@]4(C)[C@H]3CC[C@]12C (stereo partly shown) [5a-Cholestan-3a,7a,16a,27-tetrol]	No effect	No effect	No effect			
CC(=O)OC/C=C(C)/C=C/C=C(C)/C=C/C1=C(C)CCCC1(C)C [Retinyl acetate]	No effect	No effect	No effect			
CC[C@H](CC[C@@H](C)[C@H]1CC[C@H]2[C@@H]3CC=C4C[C@@H](O)CC[C@]4(C)[C@H]3CC[C@]12C)C(C)C [Beta-sitosterol]	No effect	No effect	No effect			
CC/C=C\C/C=C\C/C=C\C/C=C\C/C=C\C/C=C\CCC(=O)O [Docosa-4Z,7Z,10Z,13Z,16Z,19Z-hexanoic acid]	No effect	No effect	No effect			
CCc1ccc(CCOc2ccc(CC3SC(=O)NC3=O)cc2)nc1 (stereo not shown) [Pioglitazone HCl]	No effect	No effect	No effect			
C[C@]12CC[C@H]3[C@@H](CCC4=CC(=O)CC[C@@]43C)[C@@H]1CC[C@@H]2O [Testosterone]	No effect	No effect			None of these three VDRs were activated	None of these three VDRs were activated
C[C@]12CC[C@@H]3c4ccc(O)cc4CC[C@H]3[C@@H]1CCC2=O [Estrone]	No effect		No effect			
C[C@H](CCC(=O)O)[C@H]1CC[C@H]2[C@@H]3[C@H](O)C[C@@H]4C[C@H](O)CC[C@]4(C)[C@H]3C[C@H](O)[C@]12C [Cholic acid]	No effect	No effect				
CC1=C(/C=C/C(C)=C/C=C/C(C)=C/CO)C(C)(C)CCC1 [all-trans-Retinol]	No effect					
S-Farnesyl-L-cysteine methyl ester	No effect		No effect			
CC#C[C@]1(O)CC[C@H]2[C@@H]3CCC4=CC(=O)CCC4=C3[C@@H](c3ccc(N(C)C)cc3)C[C@@]21C [Mifepristone]		No effect		No effect		
C[C@]12CC[C@H]3[C@@H](CCC4=CC(=O)CC[C@@]43C)[C@@H]1CC[C@H]2O [Epitestosterone]	No effect	No effect				
COC(C)(C)CCCC(C)C/C=C/C(C)=C/C(=O)O (stereo not shown) [Methoprene acid]	No effect		No effect			
